pIC50: −log10 of the molar value.
Tests used:
[1] = tested on: Kasumi-1 human acute myeloid leukemia cell with c-KIT N822K activating mutation; test: Kasumi-1 cell proliferation assay (CellTiter-96); assay type: cell-based; details: Cytotoxicity, Kasumi-1 cells, 72 hours
Summary of the method: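 Kasumi-1 cells, seeded at 64000 cells/well and incubated overnight at 37 °C, were exposed to increasing compound concentrations for 72 h. Viability was measured by CellTiter96 AQueous One reagent (4 h) and absorbance at 490 nm.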

[2] = tested on: osteoclast precursors (osteoclast differentiation); test: Osteoclast tartrate-resistant acid phosphatase assay; assay type: cell-based; details: 168 h, at 1 μM treatment, 7 days, RANKL and M-CSF, read-out: inhibition activity against osteoclast differentiation
Protocol: A serial dilution of test compound was dispensed into a 96-well black clear bottom plate. Compound was diluted by the addition of DMEM media supplemented with 10% characterized fetal bovine serum. Diluted compound was transferred to a 96-well black clear bottom plate. Three thousand osteoclast precursors (Lonza, Walkersville, Md.) were added per well in growth medium containing Receptor Activator of Nuclear Factor Kappa-beta ligand (RANKL) and M-CSF. […] At the end of the incubation period, 50 μL of supernatant from each well was transferred to a clear 96-well plate. Tartrate-resistant acid phosphatase activity in the supernatant samples was determined using an acid phosphatase assay kit (Sigma, St. Louis, Mo.). Absorbance was measured at 550 nm using a plate reader. […] The Inhibition activity against osteoclast differentiation for each compound at 1 μM treatment in duplicate was measured.

FLT3 kinase = FLT3 kinase (Homo sapiens (Human), UniProt P36888); test: FLT3 kinase assay (radiometric); assay type: biochemical; details: bound
Summary of the method: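 Recombinant FLT3 (5 ng) phosphorylating poly(Glu4:Tyr1) (2 μg) with 10 μM ATP plus [^33P]-ATP in MOPS pH 7.0 buffer, 4% DMSO final, 60 min at 30° C. Reaction stopped with phosphoric acid, filter-captured and scintillation-counted; IC50 derived from dose-response.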

PDGFRβ kinase = PDGFRβ kinase (Homo sapiens (Human), UniProt P09619); test: PDGFRβ kinase assay (radiometric); assay type: biochemical; details: bound
Summary of the method: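 Radiometric assay: recombinant PDGFRβ with poly(Glu4:Tyr1) in MOPS pH 7.0 buffer containing Mg2+/Mn2+, 10 μM ATP plus [33P]-ATP, and compound at 4% DMSO final. Incubated 60 min at 30° C, stopped with phosphoric acid, filter-captured and scintillation-counted. IC50 from curve fitting.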

[3] = tested on: THP-1 human acute monocytic leukemia cell harboring NRAS G12D mutation; test: THP-1 cell proliferation assay (counter screen, CellTiter-96); assay type: cell-based; details: Cytotoxicity, THP-1 cells (counter screen), 72 hours
Summary of the method: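 THP-1 cells, RTK-independent owing to NRAS G12D, seeded at 5000/well, incubated overnight at 37 °C/5% CO2, then exposed to increasing compound concentrations for 72 h. CellTiter96 AQueous One reagent added for 4 h; viability from absorbance at 490 nm.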

[4] = tested on: CSF-1-dependent M-NFS-60 mouse myeloid leukemia cell; test: M-NFS-60 cell proliferation assay (CellTiter-96); assay type: cell-based; details: Cytotoxicity, M-NFS-60 cells, 72 hours
Summary of the method: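 CSF-1-dependent M-NFS-60 cells seeded at 2000 cells/well, settled overnight at 37 °C, 5% CO2, then exposed to increasing compound concentrations for 72 h. Viability read by CellTiter 96 AQueous One reagent (4 h) at 490 nm absorbance.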

c-KIT kinase = c-KIT kinase (Homo sapiens (Human), UniProt P10721); test: c-KIT kinase assay (radiometric); assay type: biochemical; details: class symbol
Summary of the method: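 Recombinant c-Kit (20 ng) with 2 μg Poly-(Glu4:Tyr1) in MOPS pH 7.0 buffer with MgCl2/MnCl2, 10 μM ATP plus [^33P]-ATP, 4% DMSO final, 60 min at 30° C. Stopped with phosphoric acid, filter-captured and scintillation counted; IC50 from curve fit.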

[5] = tested on: MV4-11 human acute myeloid leukemia cell with FLT3-ITD mutation; test: MV4-11 cell proliferation assay (CellTiter-96); assay type: cell-based; details: Cytotoxicity, MV4-11 cells, 72 hours
Summary of the method: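 MV4-11 cells (FLT3-ITD, FLT3-dependent growth) seeded at 6500 cells/well, incubated overnight at 37° C., 5% CO2, then exposed to increasing compound concentrations for 72 hours. Viability read by CellTiter96 AQueous One reagent (4 hours), absorbance at 490 nm.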

CSF-1R kinase = CSF-1R kinase (Homo sapiens (Human), UniProt P07333); test: CSF-1R kinase assay (AlphaScreen); assay type: biochemical; details: class symbol
Protocol: Inhibition of CSF-1R kinase activity by a test compound disclosed herein was estimated by AlphaScreen (PerkinElmer). […] Reactions were incubated at 30° C. for 45 min and stopped by adding 5 μL of 50 mM EDTA. Analysis of resulting product using an AlphaScreen kit, and counted with Enspire Alpha (PerkinElmer). […] The IC50 values of quinoxaline compounds of this invention against CSF-1R kinase were determined using the GraphPad Prism 5 software.

Sequence of PDGFRβ kinase (P09619 33-1106): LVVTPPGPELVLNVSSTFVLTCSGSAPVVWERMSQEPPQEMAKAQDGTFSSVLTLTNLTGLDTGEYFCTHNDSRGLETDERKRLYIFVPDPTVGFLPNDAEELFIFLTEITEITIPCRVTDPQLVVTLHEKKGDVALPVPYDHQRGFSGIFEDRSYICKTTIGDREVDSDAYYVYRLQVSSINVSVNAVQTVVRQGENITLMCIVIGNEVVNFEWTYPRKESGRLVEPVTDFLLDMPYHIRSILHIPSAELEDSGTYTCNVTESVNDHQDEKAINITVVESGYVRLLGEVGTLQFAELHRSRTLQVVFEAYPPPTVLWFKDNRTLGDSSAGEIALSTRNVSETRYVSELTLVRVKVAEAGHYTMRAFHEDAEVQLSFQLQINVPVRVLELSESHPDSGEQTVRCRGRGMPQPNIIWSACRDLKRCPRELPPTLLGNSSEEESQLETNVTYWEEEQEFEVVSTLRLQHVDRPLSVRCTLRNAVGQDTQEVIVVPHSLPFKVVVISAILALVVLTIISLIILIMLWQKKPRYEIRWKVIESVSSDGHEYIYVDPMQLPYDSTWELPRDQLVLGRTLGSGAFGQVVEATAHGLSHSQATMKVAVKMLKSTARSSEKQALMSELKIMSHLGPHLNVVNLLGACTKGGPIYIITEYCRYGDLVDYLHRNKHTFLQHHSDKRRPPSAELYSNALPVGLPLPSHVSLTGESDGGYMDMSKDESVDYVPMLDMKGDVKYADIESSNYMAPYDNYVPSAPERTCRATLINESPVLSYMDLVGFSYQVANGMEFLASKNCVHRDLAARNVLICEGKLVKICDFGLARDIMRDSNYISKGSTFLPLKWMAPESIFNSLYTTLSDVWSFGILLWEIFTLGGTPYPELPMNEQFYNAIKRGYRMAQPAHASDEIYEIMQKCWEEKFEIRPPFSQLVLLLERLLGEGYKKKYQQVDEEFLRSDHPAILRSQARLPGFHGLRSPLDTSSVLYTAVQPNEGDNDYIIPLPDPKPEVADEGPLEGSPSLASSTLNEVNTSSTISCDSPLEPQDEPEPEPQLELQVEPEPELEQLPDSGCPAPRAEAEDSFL
Sequence of FLT3 kinase (P36888 27-993): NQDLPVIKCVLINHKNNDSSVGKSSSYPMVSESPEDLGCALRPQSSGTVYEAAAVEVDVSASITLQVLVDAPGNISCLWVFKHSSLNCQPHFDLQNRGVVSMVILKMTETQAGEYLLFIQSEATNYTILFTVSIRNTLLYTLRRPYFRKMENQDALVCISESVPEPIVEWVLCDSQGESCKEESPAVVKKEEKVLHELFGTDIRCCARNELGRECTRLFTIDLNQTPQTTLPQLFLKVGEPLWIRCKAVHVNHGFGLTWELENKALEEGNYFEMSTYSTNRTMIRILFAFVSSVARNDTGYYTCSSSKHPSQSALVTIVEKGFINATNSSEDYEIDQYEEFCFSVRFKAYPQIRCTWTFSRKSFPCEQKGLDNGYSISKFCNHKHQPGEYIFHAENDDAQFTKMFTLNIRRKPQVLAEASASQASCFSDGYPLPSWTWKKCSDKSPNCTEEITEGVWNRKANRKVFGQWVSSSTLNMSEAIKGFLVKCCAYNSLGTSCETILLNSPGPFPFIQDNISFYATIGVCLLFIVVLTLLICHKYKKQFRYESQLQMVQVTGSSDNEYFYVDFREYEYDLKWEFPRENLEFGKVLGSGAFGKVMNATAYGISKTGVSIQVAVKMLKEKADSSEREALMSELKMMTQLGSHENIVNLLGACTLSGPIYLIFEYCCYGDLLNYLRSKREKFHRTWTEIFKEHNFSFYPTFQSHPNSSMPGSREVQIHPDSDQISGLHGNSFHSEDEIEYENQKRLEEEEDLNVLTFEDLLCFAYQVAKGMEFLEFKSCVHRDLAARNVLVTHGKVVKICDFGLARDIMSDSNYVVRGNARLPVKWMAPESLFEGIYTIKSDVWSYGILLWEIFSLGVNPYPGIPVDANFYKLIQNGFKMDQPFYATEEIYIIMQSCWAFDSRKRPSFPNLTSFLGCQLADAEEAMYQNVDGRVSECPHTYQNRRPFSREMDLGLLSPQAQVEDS
Sequence of c-KIT kinase (P10721 26-976): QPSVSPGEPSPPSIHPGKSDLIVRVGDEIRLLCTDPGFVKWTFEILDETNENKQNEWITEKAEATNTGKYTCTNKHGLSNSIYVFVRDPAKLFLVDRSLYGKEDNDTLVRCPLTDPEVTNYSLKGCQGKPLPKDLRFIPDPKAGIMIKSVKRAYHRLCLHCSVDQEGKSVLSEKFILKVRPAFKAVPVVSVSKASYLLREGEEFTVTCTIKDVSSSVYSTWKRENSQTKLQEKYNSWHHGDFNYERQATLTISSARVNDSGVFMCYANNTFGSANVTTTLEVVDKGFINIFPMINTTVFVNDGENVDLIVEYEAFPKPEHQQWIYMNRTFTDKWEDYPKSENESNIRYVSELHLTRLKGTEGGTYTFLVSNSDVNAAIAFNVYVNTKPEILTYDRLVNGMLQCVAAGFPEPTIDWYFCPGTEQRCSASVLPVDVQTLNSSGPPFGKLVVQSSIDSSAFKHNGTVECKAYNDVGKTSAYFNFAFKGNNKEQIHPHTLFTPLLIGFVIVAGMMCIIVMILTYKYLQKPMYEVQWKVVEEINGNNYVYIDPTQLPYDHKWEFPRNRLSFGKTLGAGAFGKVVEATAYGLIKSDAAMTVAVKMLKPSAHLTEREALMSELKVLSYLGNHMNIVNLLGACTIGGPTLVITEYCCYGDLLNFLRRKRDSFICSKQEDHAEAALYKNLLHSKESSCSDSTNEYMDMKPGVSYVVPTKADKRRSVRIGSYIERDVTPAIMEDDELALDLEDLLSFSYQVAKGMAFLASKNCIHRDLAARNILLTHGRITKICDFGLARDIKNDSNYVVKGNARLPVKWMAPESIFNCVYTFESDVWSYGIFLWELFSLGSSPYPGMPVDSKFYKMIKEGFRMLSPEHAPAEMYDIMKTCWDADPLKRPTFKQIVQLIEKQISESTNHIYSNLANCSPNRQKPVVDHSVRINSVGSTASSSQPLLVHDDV
Sequence of CSF-1R kinase (P07333 20-972): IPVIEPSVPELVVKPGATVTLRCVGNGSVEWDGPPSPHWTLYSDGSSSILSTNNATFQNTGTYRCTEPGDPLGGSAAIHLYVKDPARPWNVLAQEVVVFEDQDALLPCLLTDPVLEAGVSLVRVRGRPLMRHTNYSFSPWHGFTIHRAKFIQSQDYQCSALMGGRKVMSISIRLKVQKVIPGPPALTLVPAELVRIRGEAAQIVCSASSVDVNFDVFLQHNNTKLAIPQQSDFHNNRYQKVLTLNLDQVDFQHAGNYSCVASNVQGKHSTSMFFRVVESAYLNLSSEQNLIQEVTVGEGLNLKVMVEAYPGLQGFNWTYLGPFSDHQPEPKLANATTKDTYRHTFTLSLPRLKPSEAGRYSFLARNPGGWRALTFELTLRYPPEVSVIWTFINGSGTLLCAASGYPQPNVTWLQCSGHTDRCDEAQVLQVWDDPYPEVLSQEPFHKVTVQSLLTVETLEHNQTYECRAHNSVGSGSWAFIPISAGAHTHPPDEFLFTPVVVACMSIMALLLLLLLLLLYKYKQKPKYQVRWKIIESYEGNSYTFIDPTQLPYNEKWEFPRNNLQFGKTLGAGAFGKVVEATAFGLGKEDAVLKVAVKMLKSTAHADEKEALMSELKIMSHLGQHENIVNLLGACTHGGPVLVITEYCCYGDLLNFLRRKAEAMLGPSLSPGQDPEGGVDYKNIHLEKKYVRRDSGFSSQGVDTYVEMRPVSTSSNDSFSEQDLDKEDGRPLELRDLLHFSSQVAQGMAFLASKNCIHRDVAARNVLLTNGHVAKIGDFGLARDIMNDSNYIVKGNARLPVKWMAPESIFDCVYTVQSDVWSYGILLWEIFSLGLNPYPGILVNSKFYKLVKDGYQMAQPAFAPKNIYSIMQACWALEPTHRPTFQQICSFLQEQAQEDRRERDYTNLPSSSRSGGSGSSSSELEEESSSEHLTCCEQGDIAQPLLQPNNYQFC

Structure (SMILES) | pIC50 (FLT3 kinase) | pIC50 (PDGFRβ kinase) | pIC50 (c-KIT kinase) | pIC50 (CSF-1R kinase) | pIC50 [1] | inhibition at 1 µM [2] | pIC50 [3] | pIC50 [4] | pIC50 [5]
COc1ccc(COc2ccc(Nc3ccc4ncc(NCCN5CCOCC5)nc4c3C#N)cc2OC)cc1 [Example 76, 6-((3-methoxy-4-((4-methoxybenzyl)oxy)phenyl)amino)-3-((2-morpholinoethyl)amino)quinoxaline-5-carbonitrile] | < 6.00 | < 6.00 | 6.00 to 6.52 | > 7.00 | 5.00 to 6.00 | > 50% | < 5.00 | > 6.52 | 5.00 to 6.00
C=C(C)c1cnc2ccc(Nc3ccc(OCc4ccc(OC)cc4)c(OC)c3)cc2n1 [Example 106, N-(3-methoxy-4-((4-methoxybenzyl)oxy)phenyl)-3-(prop-1-en-2-yl)quinoxalin-6-amine] | < 6.00 | < 6.00 | 6.00 to 6.52 | > 7.00 | 5.00 to 6.00 | > 50% | < 5.00 | 6.00 to 6.52 | < 5.00
COc1ccc(COc2ccc(Nc3ccc4ncc(N5CCOCC5)nc4c3C#N)cc2F)cc1 [Example 56, 6-((3-fluoro-4-((4-methoxybenzyl)oxy)phenyl)amino)-3-morpholinoquinoxaline-5-carbonitrile] | < 6.00 | < 6.00 | 6.52 to 7.00 | > 7.00 | 5.00 to 6.00 | > 50% | < 5.00 | 6.00 to 6.52 | 6.00 to 6.52
COc1cc(Nc2ccc3ncc(N4CCOCC4)nc3c2C#N)ccc1OCc1ccccc1 [Example 88, 6-((4-(benzyloxy)-3-methoxyphenyl)amino)-3-morpholinoquinoxaline-5-carbonitrile] | < 6.00 | < 6.00 | > 7.00 | > 7.00 | 6.00 to 6.52 | > 50% | < 5.00 | > 6.52 | 5.00 to 6.00
COc1ccc(COc2ccc(Nc3ccc4ncc(N5CCN(C(C)C)CC5)nc4c3C#N)cc2OC)cc1 [Example 80, 3-(4-isopropylpiperazin-1-yl)-6-((3-methoxy-4-((4-methoxybenzyl)oxy)phenyl)amino)quinoxaline-5-carbonitrile] | < 6.00 | < 6.00 | > 7.00 | > 7.00 | > 6.52 | > 50% | 5.00 to 6.00 | > 6.52 | 5.00 to 6.00

More lines, main results first:

pIC50 (FLT3 kinase) | pIC50 (PDGFRβ kinase) | pIC50 (c-KIT kinase) | pIC50 (CSF-1R kinase) | Structure (SMILES) | pIC50 [1] | inhibition at 1 µM [2] | pIC50 [3] | pIC50 [4] | pIC50 [5]
< 6.00 | < 6.00 | 6.52 to 7.00 | > 7.00 | COc1cc(Nc2ccc3ncc(N4CCC4)nc3c2C#N)ccc1OCc1cccc(C#N)c1 [Example 87, 3-(azetidin-1-yl)-6-((4-((3-cyanobenzyl)oxy)-3-methoxyphenyl)amino)quinoxaline-5-carbonitrile] | 5.00 to 6.00 | > 50% | < 5.00 | 6.00 to 6.52 | < 5.00
< 6.00 | < 6.00 | 6.52 to 7.00 | > 7.00 | COc1ccc(COc2ccc(Nc3ccc4ncc(N5CCN(C)CC5)nc4c3C#N)cc2OC)cn1 [Example 95, 6-((3-methoxy-4-((6-methoxypyridin-3-yl)methoxy)phenyl)amino)-3-(4-methylpiperazin-1-yl)quinoxaline-5-carbonitrile] | 6.00 to 6.52 | > 50% | 5.00 to 6.00 | > 6.52 | 5.00 to 6.00
< 6.00 | < 6.00 | 6.00 to 6.52 | > 7.00 | COc1cc(Nc2ccc3ncc(N4CCOCC4)nc3c2C#N)ccc1OCc1ccc(CN(C)C)nc1 [Example 115, 6-((4-((6-((dimethylamino)methyl)pyridin-3-yl)methoxy)-3-methoxyphenyl)amino)-3-morpholinoquinoxaline-5-carbonitrile] | 5.00 to 6.00 | > 50% | < 5.00 | > 6.52 | 5.00 to 6.00

Source: US10689362B2, “Quinoxaline compounds as type III receptor tyrosine kinase inhibitors” (Development Center for Biotechnology, priority 2016, dated 2020)
